These results are taken from paper doi:10.1101/669069v1 (biorxiv, 2019).

For the assay, the target named is T1, uMAT (MAT from U. urealiticum) (Ureaplasma urealyticum, UniProt A0ABM9XK24).
T1 sequence (A0ABM9XK24 1-376): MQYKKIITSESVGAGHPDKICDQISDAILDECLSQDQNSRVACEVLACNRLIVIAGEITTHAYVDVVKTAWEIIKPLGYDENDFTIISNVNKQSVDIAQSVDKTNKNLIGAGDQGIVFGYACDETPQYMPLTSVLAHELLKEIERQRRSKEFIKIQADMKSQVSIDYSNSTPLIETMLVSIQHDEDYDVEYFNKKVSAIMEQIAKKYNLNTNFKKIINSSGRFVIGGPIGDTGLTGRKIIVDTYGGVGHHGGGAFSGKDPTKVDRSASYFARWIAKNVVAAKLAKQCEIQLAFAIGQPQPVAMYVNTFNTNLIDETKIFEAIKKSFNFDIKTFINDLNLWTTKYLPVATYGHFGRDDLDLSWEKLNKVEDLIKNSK
The experiment in a line: thermal shift, SYPRO-orange. The format is binding. The settings on record: read-out: dTm (first transition) at 1 mM.

Regarding `C[S+](CC[C@H](N)C(=O)O)C[C@H]1O[C@@H](n2cnc3c(N)ncnc32)[C@H](O)[C@@H]1O` (some centres unmarked) [SAM, S-adenosylmethionine], the ΔTm at 1000 µM was over 10 °C.
For `Nc1ncnc2c1ncn2[C@@H]1O[C@H](COP(=O)(O)OP(=O)(O)NP(=O)(O)O)[C@@H](O)[C@H]1O` [AMPPNP], the ΔTm at 1000 µM is about 2 °C.
